The values below come from publication PMC6747225 (International Journal of Environmental Research and Public …, 2019).

Molecules are shown by their SMILES.

The test system of one data set is CY2D6 enzyme. Particulars: humans and mammals; cited from earlier work.
Data set [1] relates to superoxide dismutase (SOD). Put plainly: Superoxide dismutase (SOD) activity in fish liver. The conditions noted are these: SER alone 5 μg·L^−1 compared to control, seven days. The format is in vivo, Carassius auratus. The procedure:
A dechlorinated water control treatment and solvent control treatment (0.1% methanol) were also set in the exposure treatments. Each treatment was prepared in six replicate tanks (30 L) with four fish per tank. Fish were not fed during the exposure period. The exposure solutions were refreshed every 24 h. After the exposure experiment, six fish were sampled in each treatment for biochemical assay and chemical analysis. The liver, brain, gills, and muscle were dissected, immediately frozen in liquid nitrogen, and stored at −80 °C until the assays. The remaining 18 fish in each treatment were used for behavioral trials at the end of exposure.
The tissue sample was homogenized in chilled physiological saline solution (1:10, w/v). The homogenates were then centrifuged for 10 min (10,000 g) at 4 °C. The obtained supernatant was used to determine enzyme activity, MDA content, and protein concentration using bioassay kits according to the manufacturer’s protocol. Enzyme activity is reported as unit (U) mg^−1 protein, and MDA content is expressed in nmol mg^−1 protein.

Take `CN(C)CCOC(c1ccccc1)c1ccccc1` [DPH, diphenhydramine]: in the data set on CY2D6 enzyme, the “Inhibition of the CY2D6 enzyme” value was “strong inhibitor”.
On to `CN[C@H]1CC[C@@H](c2ccc(Cl)c(Cl)c2)c2ccccc21` [SER, sertraline], for which the SOD activity entry in data set [1] is listed as “not significantly changed”.
